Literature values as cited in PMC7898037, “Improving mitochondria and ER stability helps eliminate upper motor neuron degeneration that occurs due to mSOD1 toxicity and TDP‐43 pathology” (Clinical and Translational Medicine, 2021).

Tests used:
SOD1 model mouse = conditions: cited from earlier work
[1] = system: SOD1^G93A‐expressing PC12 cell; conditions: PC12 cell‐based assay; cited from earlier work
cortical neurons = system: cortical neurons; design: method as in earlier work; conditions: ref 53 (compound 2), ref 54 (NU‐9); cited from earlier work

Nc1nc2ccc(OC(F)(F)F)cc2s1 [riluzole]
longevity of the misfolded SOD1 (mSOD1) mouse model (SOD1 model mouse): failed to improve the longevity

O=C1CC(=O)CC(c2ccc(F)cc2)C1 [compound 1]
effect on mSOD1‐induced protein aggregation [1]: inhibit mSOD1‐induced protein aggregation | effect on mSOD1‐mediated toxicity [1]: reduce mSOD1‐mediated toxicity

O=C1CC(=O)CC(c2cc(C(F)(F)F)cc(C(F)(F)F)c2)C1 [compound 2]
penetration into neurons (cortical neurons): did not penetrate into neurons
